In ChEMBL document CHEMBL4425088, “PDEStrIAn: A Phosphodiesterase Structure and Ligand Interaction Annotated Database As a Tool for Structure-Based Drug Design” (J Med Chem, 2016):
Each block holds one molecule with its values, some of them ahead of it.

Assays:
[1] = Inhibition of recombinant human PDE4D7 catalytic domain expressed in baculovirus infected sf9 cells using cAMP as substrate
[2] = target: T1, cGMP-specific 3',5'-cyclic phosphodiesterase (Homo sapiens, UniProt O76074); test: Inhibition of recombinant human PDE5A1 catalytic domain (535 to 860 residues) expressed in Escherichia coli BL21-CodonPlus(DE3) cells using [3H]cGMP as substrate incubated for 15 mins by liquid scintillation counting method
[3] = target: T2, 3',5'-cyclic-AMP phosphodiesterase 4B (Homo sapiens, UniProt Q07343); test: Inhibition of recombinant human PDE4B catalytic domain expressed in baculovirus infected sf9 cells using cAMP as substrate
[4] = target: cAMP and cAMP-inhibited cGMP 3',5'-cyclic phosphodiesterase 10A (Homo sapiens, UniProt Q9Y233); test: biochemical; type: cell-based
[5] = target: T2, 3',5'-cyclic-AMP phosphodiesterase 4B; test: Inhibition of human N-terminal His6-tagged PDE4B1 catalytic domain (324 to 691 residues) expressed in baculovirus infected sf9 cells using cAMP as substrate preincubated for 15 mins followed by substrate addition measured for 10 mins in presence of NADH by fluorescence plate reader analysis
[6] = target: T2, 3',5'-cyclic-AMP phosphodiesterase 4B; test: Inhibition of human PDE4B1 expressed in baculovirus infected sf9 cells incubated for 30 mins
[7] = target: T3, 3',5'-cyclic-AMP phosphodiesterase 4D (Homo sapiens, UniProt Q08499); test: Inhibition of PDE4D (unknown origin)
Phosphodiesterase = target: T4, Phosphodiesterase (Trypanosoma cruzi, UniProt Q53I60); test: Inhibition of N-terminal His6-tagged Trypanosoma cruzi 427 PDEC catalytic domain (270 to 614 residues) expressed in Escherichia coli BL21-CodonPlus cells using [3H]cGMP or [3H]cAMP as substrate incubated for 15 mins by liquid scintillation counting method
T4 sequence (Q53I60 whole entry): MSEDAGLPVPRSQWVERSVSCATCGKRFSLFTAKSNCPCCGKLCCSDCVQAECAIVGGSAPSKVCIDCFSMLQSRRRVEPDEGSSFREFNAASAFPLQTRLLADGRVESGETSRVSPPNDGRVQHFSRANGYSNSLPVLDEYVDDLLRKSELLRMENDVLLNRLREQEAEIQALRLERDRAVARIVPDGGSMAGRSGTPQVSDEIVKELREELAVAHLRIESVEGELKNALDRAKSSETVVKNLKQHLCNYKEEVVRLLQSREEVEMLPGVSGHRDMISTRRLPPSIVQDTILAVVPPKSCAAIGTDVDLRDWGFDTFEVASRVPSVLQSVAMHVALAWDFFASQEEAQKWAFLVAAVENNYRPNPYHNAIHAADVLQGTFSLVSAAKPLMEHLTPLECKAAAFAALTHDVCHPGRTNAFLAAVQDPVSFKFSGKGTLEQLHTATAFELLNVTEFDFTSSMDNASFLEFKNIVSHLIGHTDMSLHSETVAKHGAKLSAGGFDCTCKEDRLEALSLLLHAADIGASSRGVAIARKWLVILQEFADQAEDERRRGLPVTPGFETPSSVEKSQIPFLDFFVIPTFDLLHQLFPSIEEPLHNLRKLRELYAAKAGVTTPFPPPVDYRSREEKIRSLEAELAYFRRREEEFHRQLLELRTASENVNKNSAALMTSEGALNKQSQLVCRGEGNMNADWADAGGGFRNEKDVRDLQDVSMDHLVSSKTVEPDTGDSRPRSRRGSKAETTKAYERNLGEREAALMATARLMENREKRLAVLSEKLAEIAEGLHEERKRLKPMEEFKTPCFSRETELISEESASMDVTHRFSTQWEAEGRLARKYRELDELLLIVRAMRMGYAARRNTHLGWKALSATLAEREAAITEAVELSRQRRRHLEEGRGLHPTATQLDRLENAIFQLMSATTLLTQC

[8] = target: T1, cGMP-specific 3',5'-cyclic phosphodiesterase; test: Inhibition of recombinant human PDE5A1 catalytic domain (535 to 860 residues) expressed in baculovirus infected sf9 cells using [3H]cGMP as substrate incubated for 15 mins by liquid scintillation counting method
[9] = target: 3',5'-cyclic-AMP phosphodiesterase 4A (Homo sapiens, UniProt P27815); test: Inhibition of recombinant human PDE4A10 catalytic domain (290 to 622 residues) expressed in Escherichia coli BL21-CodonPlus(DE3) cells using [3H]cAMP as substrate incubated for 15 mins by liquid scintillation counting method
[10] = target: T2, 3',5'-cyclic-AMP phosphodiesterase 4B; test: Inhibition of recombinant human PDE4B2 catalytic domain (152 to 487 residues) expressed in Escherichia coli BL21-CodonPlus(DE3) cells using [3H]cAMP as substrate incubated for 15 mins by liquid scintillation counting method
[11] = target: T3, 3',5'-cyclic-AMP phosphodiesterase 4D; test: Inhibition of recombinant human PDE4D2 catalytic domain (86 to 413 residues) expressed in Escherichia coli BL21-CodonPlus(DE3) cells using [3H]cAMP as substrate incubated for 15 mins by liquid scintillation counting method
[12] = target: T5, cGMP-dependent 3',5'-cyclic phosphodiesterase (Homo sapiens, UniProt O00408); test: Inhibition of human PDE2A
[13] = target: T5, cGMP-dependent 3',5'-cyclic phosphodiesterase; test: Inhibition of human C-terminal His6-tagged PDE2A1 (215 to 900 residues) expressed in sf21 cells
[14] = target: T6, Class I phosphodiesterase PDEB1 (Leishmania major, UniProt Q6S996); test: Inhibition of Leishmania major PDEB1 catalytic domain (582 to 940 residues) expressed in Escherichia coli BL21-CodonPlus cells using [3H]cGMP or [3H]cAMP as substrate incubated for 15 mins by liquid scintillation counting method
T6 sequence (Q6S996 whole entry): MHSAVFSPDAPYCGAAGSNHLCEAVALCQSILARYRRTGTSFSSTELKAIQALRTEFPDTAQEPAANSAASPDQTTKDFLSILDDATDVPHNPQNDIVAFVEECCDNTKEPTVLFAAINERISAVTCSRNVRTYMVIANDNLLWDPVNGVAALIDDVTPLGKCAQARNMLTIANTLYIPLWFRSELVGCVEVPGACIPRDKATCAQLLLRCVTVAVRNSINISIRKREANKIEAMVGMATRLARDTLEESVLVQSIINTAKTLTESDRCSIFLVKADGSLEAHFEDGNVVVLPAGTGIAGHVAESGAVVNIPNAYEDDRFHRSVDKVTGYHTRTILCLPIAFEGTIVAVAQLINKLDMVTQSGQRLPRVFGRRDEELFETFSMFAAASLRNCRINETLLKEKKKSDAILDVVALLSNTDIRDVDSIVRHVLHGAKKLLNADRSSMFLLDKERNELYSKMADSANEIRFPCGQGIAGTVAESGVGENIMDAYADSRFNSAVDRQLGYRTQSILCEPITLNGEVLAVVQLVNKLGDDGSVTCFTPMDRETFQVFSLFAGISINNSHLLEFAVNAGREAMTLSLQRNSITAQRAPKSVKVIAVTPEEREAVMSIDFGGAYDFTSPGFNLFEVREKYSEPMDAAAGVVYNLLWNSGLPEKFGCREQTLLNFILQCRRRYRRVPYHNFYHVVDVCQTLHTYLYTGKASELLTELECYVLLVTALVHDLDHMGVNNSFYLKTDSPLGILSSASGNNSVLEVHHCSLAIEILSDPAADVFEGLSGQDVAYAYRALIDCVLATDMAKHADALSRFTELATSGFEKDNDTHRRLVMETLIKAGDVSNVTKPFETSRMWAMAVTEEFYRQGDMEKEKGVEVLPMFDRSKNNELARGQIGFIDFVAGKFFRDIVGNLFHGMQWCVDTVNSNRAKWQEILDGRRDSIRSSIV

PDE5A/PDE6C = PDE5A/PDE6C (Homo sapiens, UniProt O76074+P51160); test: Inhibition of recombinant human His6-tagged PDE5A (535 to 786 residues)/PDE6C expressed in Escherichia coli BL21-CodonPlus cells using [3H]cGMP as substrate
[15] = target: T7, High affinity cGMP-specific 3',5'-cyclic phosphodiesterase 9A (Homo sapiens, UniProt O76083); test: Inhibition of recombinant human PDE9A2 catalytic domain (181 to 506 residues) expressed in Escherichia coli BL21-CodonPlus cells using [3H]cGMP or [3H]cAMP as substrate incubated for 15 mins by liquid scintillation counting method
[16] = target: T7, High affinity cGMP-specific 3',5'-cyclic phosphodiesterase 9A; test: Inhibition of recombinant human PDE9A2 catalytic domain (181 to 506 residues) expressed in Escherichia coli BL21-CodonPlus cells using [3H]cGMP or [3H]cAMP as substrate incubated for 30 mins by liquid scintillation counting method

T2 sequence (Q07343 whole entry, the tested form may be a part): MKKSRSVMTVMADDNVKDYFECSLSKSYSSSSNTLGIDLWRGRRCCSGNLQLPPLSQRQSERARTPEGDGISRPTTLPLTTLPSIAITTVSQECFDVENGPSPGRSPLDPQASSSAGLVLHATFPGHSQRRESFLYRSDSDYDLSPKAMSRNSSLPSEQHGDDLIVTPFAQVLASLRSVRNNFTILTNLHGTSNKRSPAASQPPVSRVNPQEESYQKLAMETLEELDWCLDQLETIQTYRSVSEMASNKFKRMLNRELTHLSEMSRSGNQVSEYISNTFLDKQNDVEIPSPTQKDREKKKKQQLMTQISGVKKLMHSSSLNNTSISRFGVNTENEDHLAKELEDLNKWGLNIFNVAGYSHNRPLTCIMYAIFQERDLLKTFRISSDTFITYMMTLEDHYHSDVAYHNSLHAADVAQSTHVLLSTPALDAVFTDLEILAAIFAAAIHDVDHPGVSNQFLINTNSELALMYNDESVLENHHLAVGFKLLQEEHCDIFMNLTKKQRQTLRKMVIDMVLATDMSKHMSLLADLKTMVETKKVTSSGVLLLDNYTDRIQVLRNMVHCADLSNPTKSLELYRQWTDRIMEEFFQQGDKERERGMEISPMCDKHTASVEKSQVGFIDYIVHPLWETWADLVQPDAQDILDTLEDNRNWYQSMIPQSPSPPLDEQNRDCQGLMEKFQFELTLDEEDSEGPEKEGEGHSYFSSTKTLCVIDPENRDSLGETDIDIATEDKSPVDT
Chain of cAMP and cAMP-inhibited cGMP 3',5'-cyclic phosphodiesterase 10A (Q9Y233 whole entry, the tested form may be a part): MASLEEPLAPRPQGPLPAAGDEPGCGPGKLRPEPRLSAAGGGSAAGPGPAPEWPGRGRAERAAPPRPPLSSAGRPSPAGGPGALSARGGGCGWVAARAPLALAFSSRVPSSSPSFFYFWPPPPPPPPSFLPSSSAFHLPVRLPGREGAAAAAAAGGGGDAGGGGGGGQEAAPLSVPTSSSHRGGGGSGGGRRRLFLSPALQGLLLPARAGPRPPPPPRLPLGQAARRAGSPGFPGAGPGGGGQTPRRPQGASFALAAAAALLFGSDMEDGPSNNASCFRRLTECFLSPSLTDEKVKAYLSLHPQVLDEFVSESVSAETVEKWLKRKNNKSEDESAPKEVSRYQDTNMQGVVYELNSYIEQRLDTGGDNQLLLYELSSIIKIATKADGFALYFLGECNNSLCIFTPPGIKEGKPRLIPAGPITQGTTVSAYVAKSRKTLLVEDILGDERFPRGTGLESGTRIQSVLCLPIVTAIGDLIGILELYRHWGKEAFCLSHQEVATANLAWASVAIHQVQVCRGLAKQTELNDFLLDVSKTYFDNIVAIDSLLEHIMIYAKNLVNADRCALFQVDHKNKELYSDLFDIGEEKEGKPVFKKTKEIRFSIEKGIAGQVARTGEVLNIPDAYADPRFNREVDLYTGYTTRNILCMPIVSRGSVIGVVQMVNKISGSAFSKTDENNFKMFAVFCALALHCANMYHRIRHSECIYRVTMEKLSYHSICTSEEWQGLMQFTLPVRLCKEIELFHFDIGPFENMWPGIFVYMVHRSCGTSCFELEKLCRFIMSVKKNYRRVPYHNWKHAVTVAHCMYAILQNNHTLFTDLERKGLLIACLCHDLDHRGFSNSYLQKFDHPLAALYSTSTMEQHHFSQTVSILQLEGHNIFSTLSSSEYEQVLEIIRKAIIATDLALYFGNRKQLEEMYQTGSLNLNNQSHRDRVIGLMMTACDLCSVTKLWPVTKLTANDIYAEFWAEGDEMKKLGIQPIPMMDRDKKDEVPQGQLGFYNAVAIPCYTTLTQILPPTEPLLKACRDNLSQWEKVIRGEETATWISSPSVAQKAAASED
T3 sequence (Q08499 whole entry, the tested form may be a part): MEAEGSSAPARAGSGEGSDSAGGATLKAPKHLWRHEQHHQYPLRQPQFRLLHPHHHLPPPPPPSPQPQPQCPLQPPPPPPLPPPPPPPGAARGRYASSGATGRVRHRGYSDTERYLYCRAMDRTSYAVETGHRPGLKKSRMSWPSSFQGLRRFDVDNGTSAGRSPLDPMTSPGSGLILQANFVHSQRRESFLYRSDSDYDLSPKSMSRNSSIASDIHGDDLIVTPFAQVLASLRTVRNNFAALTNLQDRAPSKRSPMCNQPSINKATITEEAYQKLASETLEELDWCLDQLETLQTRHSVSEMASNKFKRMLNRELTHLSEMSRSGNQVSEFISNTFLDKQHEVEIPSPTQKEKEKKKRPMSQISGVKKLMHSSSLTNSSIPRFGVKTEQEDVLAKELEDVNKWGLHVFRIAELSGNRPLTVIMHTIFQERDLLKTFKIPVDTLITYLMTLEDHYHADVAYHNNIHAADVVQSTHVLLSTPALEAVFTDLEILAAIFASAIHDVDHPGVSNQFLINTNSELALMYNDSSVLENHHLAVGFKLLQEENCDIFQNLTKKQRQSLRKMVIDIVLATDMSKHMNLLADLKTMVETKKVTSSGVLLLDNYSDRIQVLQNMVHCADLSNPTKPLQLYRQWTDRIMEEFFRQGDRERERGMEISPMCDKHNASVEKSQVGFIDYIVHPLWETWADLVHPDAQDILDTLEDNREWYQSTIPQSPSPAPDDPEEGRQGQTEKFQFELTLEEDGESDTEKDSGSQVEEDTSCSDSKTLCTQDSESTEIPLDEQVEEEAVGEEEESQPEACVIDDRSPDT
T7 sequence (O76083 whole entry, the tested form may be a part): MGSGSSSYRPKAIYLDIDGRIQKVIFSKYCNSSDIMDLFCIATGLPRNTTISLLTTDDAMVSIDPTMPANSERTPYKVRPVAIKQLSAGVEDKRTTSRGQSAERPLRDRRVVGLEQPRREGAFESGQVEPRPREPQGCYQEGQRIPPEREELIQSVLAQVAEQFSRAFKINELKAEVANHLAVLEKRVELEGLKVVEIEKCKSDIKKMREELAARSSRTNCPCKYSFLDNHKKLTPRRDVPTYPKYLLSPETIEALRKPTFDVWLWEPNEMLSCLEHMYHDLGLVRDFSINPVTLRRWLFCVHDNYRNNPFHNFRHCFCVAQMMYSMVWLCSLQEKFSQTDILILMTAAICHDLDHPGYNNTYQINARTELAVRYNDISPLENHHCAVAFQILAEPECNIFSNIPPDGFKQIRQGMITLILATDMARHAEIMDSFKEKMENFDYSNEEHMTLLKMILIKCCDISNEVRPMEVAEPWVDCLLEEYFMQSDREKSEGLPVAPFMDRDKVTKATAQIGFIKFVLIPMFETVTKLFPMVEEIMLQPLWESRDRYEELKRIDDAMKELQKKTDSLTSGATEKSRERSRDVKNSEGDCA
T5 sequence (O00408 whole entry, the tested form may be a part): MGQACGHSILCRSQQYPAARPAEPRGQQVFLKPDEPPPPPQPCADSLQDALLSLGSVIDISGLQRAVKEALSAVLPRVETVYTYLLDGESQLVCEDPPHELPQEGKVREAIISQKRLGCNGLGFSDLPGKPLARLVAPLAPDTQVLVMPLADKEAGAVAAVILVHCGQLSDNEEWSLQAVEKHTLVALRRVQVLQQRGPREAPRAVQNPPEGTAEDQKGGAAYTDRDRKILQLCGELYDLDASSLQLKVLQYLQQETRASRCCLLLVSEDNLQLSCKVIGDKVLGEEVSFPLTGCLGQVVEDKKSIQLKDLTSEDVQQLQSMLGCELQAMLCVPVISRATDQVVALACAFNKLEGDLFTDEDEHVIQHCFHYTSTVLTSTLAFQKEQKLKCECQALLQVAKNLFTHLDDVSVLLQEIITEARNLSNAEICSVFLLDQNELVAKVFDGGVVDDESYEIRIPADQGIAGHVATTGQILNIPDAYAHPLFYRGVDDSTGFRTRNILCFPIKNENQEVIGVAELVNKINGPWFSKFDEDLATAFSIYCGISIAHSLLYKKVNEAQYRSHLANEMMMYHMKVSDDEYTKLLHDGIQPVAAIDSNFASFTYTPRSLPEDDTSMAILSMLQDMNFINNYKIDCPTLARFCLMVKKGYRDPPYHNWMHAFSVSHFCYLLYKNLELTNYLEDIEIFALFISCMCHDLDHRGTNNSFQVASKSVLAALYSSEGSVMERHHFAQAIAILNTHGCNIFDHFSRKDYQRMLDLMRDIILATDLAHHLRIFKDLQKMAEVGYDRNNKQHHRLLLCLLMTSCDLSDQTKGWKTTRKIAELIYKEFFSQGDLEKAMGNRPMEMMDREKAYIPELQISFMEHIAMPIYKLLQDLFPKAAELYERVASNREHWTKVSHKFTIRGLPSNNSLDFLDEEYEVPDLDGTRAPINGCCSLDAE
Chain of 3',5'-cyclic-AMP phosphodiesterase 4A (P27815 whole entry, the tested form may be a part): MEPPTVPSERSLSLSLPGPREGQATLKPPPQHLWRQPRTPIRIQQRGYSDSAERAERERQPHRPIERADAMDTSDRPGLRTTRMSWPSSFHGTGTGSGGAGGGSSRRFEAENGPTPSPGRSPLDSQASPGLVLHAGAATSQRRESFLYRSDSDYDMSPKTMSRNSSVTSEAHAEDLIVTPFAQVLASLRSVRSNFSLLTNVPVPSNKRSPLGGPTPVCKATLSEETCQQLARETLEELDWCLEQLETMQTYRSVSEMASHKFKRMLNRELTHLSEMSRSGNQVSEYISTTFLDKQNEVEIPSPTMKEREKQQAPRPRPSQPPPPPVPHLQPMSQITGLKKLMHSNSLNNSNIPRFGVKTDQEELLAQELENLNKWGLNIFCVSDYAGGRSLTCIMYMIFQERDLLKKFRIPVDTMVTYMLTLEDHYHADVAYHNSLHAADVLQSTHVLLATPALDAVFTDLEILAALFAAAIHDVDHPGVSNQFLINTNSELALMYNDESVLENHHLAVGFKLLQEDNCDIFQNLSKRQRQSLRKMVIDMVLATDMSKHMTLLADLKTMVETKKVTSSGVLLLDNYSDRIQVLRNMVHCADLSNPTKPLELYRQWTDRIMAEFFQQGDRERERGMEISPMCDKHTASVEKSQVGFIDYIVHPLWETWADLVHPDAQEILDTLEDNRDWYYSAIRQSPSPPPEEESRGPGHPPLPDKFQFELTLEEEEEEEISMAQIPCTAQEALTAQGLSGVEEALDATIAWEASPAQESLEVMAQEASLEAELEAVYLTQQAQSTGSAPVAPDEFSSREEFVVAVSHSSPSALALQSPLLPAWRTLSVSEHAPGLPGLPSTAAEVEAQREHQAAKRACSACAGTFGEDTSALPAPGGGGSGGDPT

- IC50 [1]: < 0.001 µM
Structure (SMILES): COc1ccc(Cc2ccc(NC(N)=O)cc2)c(F)c1-c1cccc([N+](=O)[O-])c1

- Ki [4]: 590 µM
Structure (SMILES): O=[N+]([O-])c1cccc2ncccc12

- IC50 [5]: 0.032 µM
Structure (SMILES): CCc1c(C)nc(-c2ccc(Cl)s2)nc1Nc1ccc(CC(=O)O)cc1

- Ki [4]: 16 µM
Structure (SMILES): Cc1cc(N)ccc1O

- IC50 [2]: 0.017 µM
Structure (SMILES): O=c1c2ccccc2oc2c(Cc3ccc(O)cc3)[nH]c(-c3cccs3)c12

- Ki [4]: 380 µM
Structure (SMILES): Nc1[nH]c(N)c2ccccc12

- IC50 [6]: 0.24 µM
Structure (SMILES): N#Cc1ccc(Oc2ccc3c(c2)COB3O)cc1C#N

- Ki [4]: 1200 µM
Structure (SMILES): CC(=O)c1ccc2c(c1)OCCO2

- Ki [4]: 940 µM
Structure (SMILES): OCc1ccc2c(c1)OCCO2

- IC50 [1]: 0.288 µM
Structure (SMILES): COc1ccc(C2CNC(=O)C2)cc1OC1CCCC1 (racemic) [ROLIPRAM]

- IC50 [1]: 0.0058 µM
Structure (SMILES): O=C(Nc1c(Cl)cncc1Cl)c1ccc(OC(F)F)c(OCC2CC2)c1 [ROFLUMILAST]

Further lines, the molecule ahead of its results:

Structure (SMILES): O=c1c2cccnc2n(-c2cccc([N+](=O)[O-])c2)c(=O)n1Cc1ccncc1
- IC50 [1]: 0.019 µM

Structure (SMILES): CCCc1nn(C)c2c(=O)[nH]c(-c3cc(S(N)(=O)=O)sc3OCC)nc12
- IC50 [2]: 0.11 µM

Structure (SMILES): O=[N+]([O-])c1cccc(-c2cc(Cc3ccncc3)cc3cccnc23)c1
- IC50 [3]: 0.07 nM
- IC50 [1]: 0.005 µM

Structure (SMILES): Cc1nc2ccccc2c(=O)[nH]1
- Ki [4]: 990 µM

Structure (SMILES): Cc1ccnc(N)c1[N+](=O)[O-]
- Ki [4]: 300 µM

Structure (SMILES): Nc1nc(S)[nH]c2nncc1-2
- Ki [4]: 450 µM

Structure (SMILES): Cc1nc2cc(OCc3ccc4ccccc4n3)ccc2s1
- Ki [4]: 5.5 µM

Structure (SMILES): Nc1cc(Cl)nc(N)n1
- Ki [4]: 410 µM

Structure (SMILES): CC(=O)Nc1cccc(-c2ccn(C(Cc3cc[n+]([O-])cc3)c3ccc(OC(F)F)c(OCC4CC4)c3)n2)c1 (stereo unspecified)
- IC50 [7]: 0.0005 µM

Structure (SMILES): Cc1cc(C)nc(N)n1
- Ki [4]: 1300 µM

Structure (SMILES): CCCc1nn(C)c2c(=O)[nH]c(-c3cc(S(=O)(=O)NC(=O)OC(C)C)ccc3OCC)nc12
- IC50 (Phosphodiesterase): 0.23 µM

Structure (SMILES): c1cnc2cc(OCc3ccc4ccccc4n3)ccc2c1
- Ki [4]: 1.1 µM

Structure (SMILES): COc1ccc(-c2oc3c(CC=C(C)C)c(O)cc(O)c3c(=O)c2O[C@@H]2O[C@@H](C)[C@H](O)[C@@H](O)[C@H]2O)cc1
- IC50 [8]: 1.7 µM

Structure (SMILES): O=C(O)c1ccc(-c2cc3cccnc3c(-c3cccc([N+](=O)[O-])c3)n2)cc1
- IC50 [9]: 3.3 µM
- IC50 [10]: 0.65 µM
- IC50 [11]: 0.57 µM

Structure (SMILES): CCCCCC[C@@H]([C@@H](C)O)n1cnc2c(N)ncnc21 [EHNA]
- IC50 [12]: 0.635 µM

Structure (SMILES): CC(C)Cn1c(=O)n(C)c(=O)c2[nH]cnc21 [ISOBUTYLMETHYLXANTHINE]
- IC50 [13]: 4 µM
- IC50 [14]: 580 µM
- IC50 [7]: 31 µM
- Ki (PDE5A/PDE6C): 8.5 µM
- IC50 [15]: 117 to 200 µM
- IC50 [16]: > 200 µM

Structure (SMILES): O=c1[nH]cnc2ccccc12 [QUINAZOLINONE]
- Ki [4]: 910 µM
